SMILES strings stand for the structures.

This experiment deals with p62 puncta. In words: p62 puncta immunocytochemistry imaging in HeLa cells. It counts as cell-based. Conditions: 24 hours treatment, relative to vehicle control (DMSO). As for the experimental part: HeLa cells were seeded in coated 96-well plates (10,000 cells) and allowed to adhere overnight. After 24 hours of treatment with either vehicle (DMSO) or test compounds, the media was discarded, and cells were rinsed with ice-cold 1×PBS before fixation by 4% formaldehyde or paraformaldehyde for 20 min. Cells were then washed with 1×PBS and permeabilized with 0.1% Triton X-100 in PBS for 20 min and blocked with Blocking Buffer in PBS for 1 hour. The cells were incubated thereafter for 1 hour with anti-p62 primary antibody in Blocking Buffer, followed by incubation with secondary antibody for 1 hour. DAPI dye was used to visualize nuclei of fixed cells. The blocking buffer used were 5% Fetal Bovine Serum (FBS, ThermoFIsher Scientific, 10270106) and Li-cor Intercept (PBS) Blocking Buffer (Li-cor, 927-70001). The primary antibody used was mouse anti-p62 primary antibody (Novus Biologicals, H00008878-M01). The secondary antibodies used were goat anti-mouse Alexa Fluor Plus 488 secondary antibody (Invitrogen, GOXMS) and goat anti-mouse Alexa Fluor 488 secondary antibody (Invitrogen, A-11029). The DAPI dyes used were DAPI dye (Invitrogen, 62248) and DAPI dye (Invitrogen, D1306).
For the EVOS M7000 System, cells were imaged on the EVOS M7000 microscope using a 20× air objective (Nikon, N.A 0.45). DAPI and p62 channels were illuminated with LED light cubes using integrated hard-coated filter sets for DAPI (357/447 nm) and GFP (470/525 nm) respectively. Images were analysed for p62 puncta count on the Celeste 6.0 software.
For the Operetta CLS System, cells were imaged on the Operetta CLS using a 63× water objective on the DAPI and Alexa 488 channels. Images were analysed for p62 puncta count on the Harmony 5.1 software.
HeLa cells were treated with compounds for 24 hours to evaluate the effect of these compounds on p62 puncta activity. The resulting changes in levels of p62 puncta were assessed by imaging, either on the EVOS M7000 or Operetta CLS systems as described in experimental procedures. The fold change of p62 puncta levels induced by compound treatment relative to vehicle control (DMSO) was determined and summarized in Table 10.
As to `CC(C)(C)OC(=O)CCCCOCCNCc1cc(F)cc2c1ccn2Cc1ccc(Cl)cc1` [Compound 147], the “p62 puncta (fold change of p62 puncta levels)” value is “+ (<2-fold change in p62 puncta levels relative to DMSO control)”.
With `CNCCOCCOCCNCc1cc(F)cc2c1ccn2Cc1ccc(Cl)cc1` [Compound 89] the entry was “++ (>2-fold change in p62 puncta levels relative to DMSO control)”.
With `OCCNCc1cncc2c1ccn2Cc1ccc(Cl)cc1` [Compound 110, 2-(((1-(4-chlorobenzyl)-1H-pyrrolo[2,3-c]pyridin-4-yl)methyl)amino)ethan-1-ol] the entry was “++ (>2-fold change in p62 puncta levels relative to DMSO control)”; with `C#CCOCCOCCOCCNCc1cc(F)cc2c1ccn2Cc1ccc(Cl)cc1` [Compound 137], “++ (>2-fold change in p62 puncta levels relative to DMSO control)”.
With `CC(C)(C)OC(=O)NCCCOCCNCc1cc(F)cc2c1ccn2Cc1ccc(Cl)cc1` [Compound 163] the entry was “++ (>2-fold change in p62 puncta levels relative to DMSO control)”; with `Fc1cc(CNCCOCCOCCOCCCOc2ccccc2)c2ccn(Cc3ccc(Cl)cc3)c2c1` [Compound 94], “++ (>2-fold change in p62 puncta levels relative to DMSO control)”.
As for `CC(C)(C)OC(=O)CCOCCNCc1cc(F)cc2c1ccn2Cc1ccc(Cl)cc1` [Compound 142], the “p62 puncta (fold change of p62 puncta levels)” value was “+ (<2-fold change in p62 puncta levels relative to DMSO control)”.
Then `CC(C)(C)OC(=O)NC1CCN(CCOCCNCc2cc(F)cc3c2ccn3Cc2ccc(Cl)cc2)CC1` [Compound 127], with “++ (>2-fold change in p62 puncta levels relative to DMSO control)”.
For `COC1CCN(CCOCCNCc2cc(F)cc3c2ccn3Cc2ccc(Cl)cc2)CC1` [Compound 129], the “p62 puncta (fold change of p62 puncta levels)” value is reported as “++ (>2-fold change in p62 puncta levels relative to DMSO control)”.
Then `CC(C)(C)OC(=O)NCCOCCOCCNCc1cc(F)cc2c1ccn2Cc1ccc(Cl)cc1` [Compound 135], with “++ (>2-fold change in p62 puncta levels relative to DMSO control)”; and `CNCCOCCOCCOCCNCc1cc(F)cc2c1ccn2Cc1ccc(Cl)cc1` [Compound 90], with “++ (>2-fold change in p62 puncta levels relative to DMSO control)”.
In the case of `CC(C)(C)OC(=O)COCCNCc1cc(F)cc2c1ccn2Cc1ccc(Cl)cc1` [Compound 141], the “p62 puncta (fold change of p62 puncta levels)” value is reported as “+ (<2-fold change in p62 puncta levels relative to DMSO control)”.
Then `C#CCOCCOCCNCc1cc(F)cc2c1ccn2Cc1ccc(Cl)cc1` [Compound 140], with “++ (>2-fold change in p62 puncta levels relative to DMSO control)”.
Then `C#CCCN1CCN(CCOCCNCc2cc(F)cc3c2ccn3Cc2ccc(Cl)cc2)CC1` [Compound 121], with “++ (>2-fold change in p62 puncta levels relative to DMSO control)”.
Then `COC(=O)CCOCCOCCOCCNCc1cc(F)cc2c1ccn2Cc1ccc(Cl)cc1` [Compound 169], with “+ (<2-fold change in p62 puncta levels relative to DMSO control)”.
As to `COC(=O)CCOCCNCC(O)COc1cccc2c1ccn2Cc1ccccc1` (stereo not shown) [Compound 118], the “p62 puncta (fold change of p62 puncta levels)” value was “++ (>2-fold change in p62 puncta levels relative to DMSO control)”.
With `C#CCCOCCOCCOCCNCc1ccc(Cl)c2c1ccn2Cc1ccccc1` [Compound 122] the entry was “++ (>2-fold change in p62 puncta levels relative to DMSO control)”; with `CC(C)(C)OC(=O)N1CCC(COCCOCCNCc2cc(F)cc3c2ccn3Cc2ccc(Cl)cc2)CC1` [Compound 174], “++ (>2-fold change in p62 puncta levels relative to DMSO control)”.
Consider `CC(C)(C)OC(=O)N1CCC(OCCOCCNCc2cc(F)cc3c2ccn3Cc2ccc(Cl)cc2)CC1` [Compound 93], for which the “p62 puncta (fold change of p62 puncta levels)” value is listed as “++ (>2-fold change in p62 puncta levels relative to DMSO control)”.
Then `CC(C)(C)OC(=O)Nc1cccc(COCCNCc2cc(F)cc3c2ccn3Cc2ccc(Cl)cc2)c1` [Compound 162], with “++ (>2-fold change in p62 puncta levels relative to DMSO control)”; and `CC(C)(C)OC(=O)N[C@H]1CC[C@@H](COCCNCc2cc(F)cc3c2ccn3Cc2ccc(Cl)cc2)CC1` [Compound 176], with “++ (>2-fold change in p62 puncta levels relative to DMSO control)”; and `CC(C)(C)OC(=O)NCCCCCOCCNCc1cc(F)cc2c1ccn2Cc1ccc(Cl)cc1` [Compound 157], with “++ (>2-fold change in p62 puncta levels relative to DMSO control)”.
As for `CC(C)(C)OC(=O)CCCCCOCCNCc1cc(F)cc2c1ccn2Cc1ccc(Cl)cc1` [Compound 150], the “p62 puncta (fold change of p62 puncta levels)” value is on record as “+ (<2-fold change in p62 puncta levels relative to DMSO control)”.
With `CC(C)(C)OC(=O)NCCOCCNCc1cc(F)cc2c1ccn2Cc1ccc(Cl)cc1` [Compound 133] the entry was “++ (>2-fold change in p62 puncta levels relative to DMSO control)”; with `C#CCCOCCOCCNCC(O)COc1cccc2c1ccn2Cc1ccccc1` (stereo not shown) [Compound 117], “++ (>2-fold change in p62 puncta levels relative to DMSO control)”; with `CC(C)(C)OC(=O)NC[C@H]1CC[C@H](COCCNCc2cc(F)cc3c2ccn3Cc2ccc(Cl)cc2)CC1` [Compound 175], “++ (>2-fold change in p62 puncta levels relative to DMSO control)”.
Then `CC(C)NCC(O)COc1ccc2c(ccn2Cc2ccccc2)c1` (stereo not shown) [Compound 39], with “++ (>2-fold change in p62 puncta levels relative to DMSO control)”; and `CC(C)(C)OC(=O)N1CC(COCCNCc2cc(F)cc3c2ccn3Cc2ccc(Cl)cc2)C1` [Compound 164], with “++ (>2-fold change in p62 puncta levels relative to DMSO control)”.
With `COC(=O)C1(COCCNCc2cc(F)cc3c2ccn3Cc2ccc(Cl)cc2)COC1` [Compound 155] the entry was “+ (<2-fold change in p62 puncta levels relative to DMSO control)”; with `CCOC(=O)C1CCN(C(=O)COCCNCc2cc(F)cc3c2ccn3Cc2ccc(Cl)cc2)CC1` [Compound 152], “+ (<2-fold change in p62 puncta levels relative to DMSO control)”.
Take `CC(C)(C)OC(=O)NCCCCCCCCOCCNCc1cc(F)cc2c1ccn2Cc1ccc(Cl)cc1` [Compound 158]: the “p62 puncta (fold change of p62 puncta levels)” value was “++ (>2-fold change in p62 puncta levels relative to DMSO control)”.
Then `OCCNCc1cc2ccn(Cc3ccc(F)cc3)c2cc1F` [Compound 112, 2-(((6-fluoro-1-(4-fluorobenzyl)-1H-indol-5-yl)methyl)amino)ethan-1-ol], with “++ (>2-fold change in p62 puncta levels relative to DMSO control)”.
For `O=C(Cn1ccc2c(CNCCO)cc(F)cc21)c1ccc(F)cc1` [Compound 83, 2-(6-fluoro-4-(((2-hydroxyethyl)amino)methyl)-1H-indol-1-yl)-1-(4-fluorophenyl)ethan-1-one], the “p62 puncta (fold change of p62 puncta levels)” value was “++ (>2-fold change in p62 puncta levels relative to DMSO control)”.
With `CC(C)(C)OC(=O)N1CCN(CCOCCNCc2cc(F)cc3c2ccn3Cc2ccc(Cl)cc2)CC1` [Compound 156], the “p62 puncta (fold change of p62 puncta levels)” value is recorded as “++ (>2-fold change in p62 puncta levels relative to DMSO control)”.
With `C#CCCOCCNCc1cc(F)cc2c1ccn2Cc1ccc(Cl)cc1` [Compound 143] the entry was “++ (>2-fold change in p62 puncta levels relative to DMSO control)”.
With `C#Cc1ccc(COCCNCc2cc(F)cc3c2ccn3Cc2ccc(Cl)cc2)cc1` [Compound 173] the entry was “++ (>2-fold change in p62 puncta levels relative to DMSO control)”; with `CC(C)(C)OC(=O)NCCN1CCN(CCOCCNCc2cc(F)cc3c2ccn3Cc2ccc(Cl)cc2)CC1` [Compound 128], “++ (>2-fold change in p62 puncta levels relative to DMSO control)”.
With `CC(C)(C)OC(=O)CCCCCCCCOCCNCc1cc(F)cc2c1ccn2Cc1ccc(Cl)cc1` [Compound 149] the entry was “+ (<2-fold change in p62 puncta levels relative to DMSO control)”; with `OCCNCc1ccnc2c1ccn2Cc1ccc(Cl)cc1` [Compound 111], “+ (<2-fold change in p62 puncta levels relative to DMSO control)”.
Regarding `C#CCCN1CCC(COCCNCc2cc(F)cc3c2ccn3Cc2ccc(Cl)cc2)CC1` [Compound 120], the “p62 puncta (fold change of p62 puncta levels)” value is “++ (>2-fold change in p62 puncta levels relative to DMSO control)”.

The values are drawn from patent US20250243160A1, “INDOLE DERIVATIVES FOR TARGETING AUTOPHAGY” (Automera PTE. LTD, priority 2024, published 2025).
